Experimental data: patent publication US20220089540A1 (Board of Trustees of Michigan State University, priority 2019, published 2022)

Columns and labels:
[1] = test system: lung tumors of A/J mice; experiment: Vinyl carbamate-induced (Kras) lung cancer in A/J mice; format: in vivo, mouse
Method: To evaluate the effects of LG268, with and without other chemotherapeutic agents, female A/J mice were injected with a weekly dose of vinyl carbamate for twelve weeks to induce lung tumors of between 0.5 and 1 mm in diameter. A/J mice were randomized and treated with either control diet or rexinoids fed in the diet (100 mg/kg diet). One week after the treatment diets started, mice were injected with 6 cycles of carboplatin (50 mg/kg i.p.), paclitaxel (15 mg/kg i.p.), or a combination thereof, given every other week. At the end of the studies, lungs were harvested en bloc and inflated with buffered formalin (NBF); liver and plasma were collected to determine drug levels and lipid concentrations. Step sectioning (200 μm between sections) of the left lung started at the medial hilar surface, and sections were stained with hematoxylin and eosin. The number, size, and histopathology of randomized, coded tumors were assessed on two separate sections of each lung by two independent investigators. Classification of the tumors as low, medium, or high grade was based on previously published histologic and nuclear criteria. The efficacy of other rexinoids (e.g., MSU 42011) for treatment of lung cancer, alone and in combination with standard of care chemotherapy (carboplatin and paclitaxel), is currently being evaluated in this preclinical model.

[2] = test system: tumors of PyMT mice; experiment: PyMT mice, 15-day protocol with or without anti-PD-L1 antibodies; format: in vivo, mouse
Method: To evaluate if LG268 treatment would have immunomodulatory effects, PyMT mice with a tumor volume of 32-64 mm^3 were treated with LG268 (100 mg/kg of diet) or control diet for 14 days (FIG. 7A). Mice were euthanized at day 15, and tumor, intact mammary gland and spleen were analyzed by flow cytometry, immunohistochemistry and immunoblotting (whole tumor lysates). At day 15, mice treated with LG268 presented higher levels of PD-L1 when compared with control mice (FIG. 7D-7E).
The inventors tested whether the combination of an immune checkpoint inhibitor and LG268 for the treatment of PyMT tumors would further increase the infiltration of cytotoxic CD8 T cells. PyMT mice with 32-64 mm3 mice were treated by intraperitoneal injection with anti-PD-L1 (40 μg/mouse) or isotype control antibodies on days 3, 7 and 11, in combination with LG268 or control diet (FIG. 7A).

[3] = test system: mammary gland tumors of MMTV-Neu mice; experiment: MMTV-Neu mouse model of HER2 positive breast cancer, rexinoid in diet
[4] = test system: tumors of PyMT mice; experiment: PyMT mouse model of triple negative breast cancer, treatment until endpoint; format: in vivo
Method: To determine if the immune modulation induced by LG268 treatment in MMTV-Neu mice could be extended to a model of triple negative breast cancer (TNBC), the inventors repeated the in vivo studies in PyMT mice. PyMT mice with a tumor volume of 32-64 mm^3 were treated with LG268 (100 mg/kg of diet) or with a control diet until the tumor burden met maximum defined endpoints allowed by the IACUC-approved animal protocol (individual tumor volume <520 mm^3). In mice receiving the control diet, these tumors progressed extremely rapidly so that the average age to reach maximum tumor volume was 31 days.

[5] = 100 mg/kg diet, LG268 5 days, bexarotene 10 days, western blot

Structure (SMILES): Cc1cc2c(cc1C1(c3ccc(C(=O)O)cn3)CC1)C(C)(C)CCC2(C)C [LG268]
- average number of lung tumors ([1]; LG268 100 mg/kg diet 12 weeks, C 50 mg/kg i.p., P 15 mg/kg i.p., 6 injections, control 3.4±0.25): 2.2±0.28
- average tumor size ([1]; control 0.58±0.09 mm^3): 0.24±0.03 mm^3
- average tumor burden ([1]; control 1.99±0.34 mm^3): 0.52±0.12 mm^3
- percentage of high grade tumors ([1]; control 71%): 52%
- decrease of average tumor size vs controls ([1]; mouse, in vivo): 59%
- diminution of average tumor burden vs control ([1]; mouse, in vivo): 74%
- PD-L1 levels in tumors vs control ([2]; 100 mg/kg diet, day 15): higher levels
- immune cell populations infiltrating to the tumors ([2]; LG268 alone, day 15): did not induce any changes
- spleen weight vs control diet ([2]; LG268 only): significant decrease
- PD-1 expression in tumors vs control ([3]; 100 mg/kg diet, 5 days): lower
- PD-L1 expression in tumors vs control ([3]; 100 mg/kg diet, LG268 5 days, CW-V-125 10 days, western blot and/or immunohistochemistry): significantly higher
- myeloid derived suppressor cells (CD45+, CD11b+, Gr1+) in tumors ([3]; 100 mg/kg diet, LG268 5 days, bexarotene 10 days, control 1.9%): 0.8 % of CD45+ immune cells
- mammary tumor size (tumor weight as percentage of total body weight) ([3]; 100 mg/kg diet, LG268 5 days, bexarotene 10 days, control diet 3.2%): 1.1 % of total body weight
- cleaved caspase 3 in tumors ([3]; 100 mg/kg diet, LG268 5 days, bexarotene 10 days, immunohistochemistry): increase
- reduction of CD206 expression in tumor lysates [3, 5]: 65%
- reduction of p-STAT1 expression in whole tumor lysates [3, 5]: 80%
- activated CD4 T cells (CD45+, CD3+, CD4+, CD25+) in tumors ([3]; 100 mg/kg diet, control 27.5%): 13.0%
- expression of p-STAT3 or p-STAT5 in tumor lysates ([3]; 100 mg/kg diet, western blot): no changes
- caliber of the vessels in the tumors ([3]; CD31 immunohistochemistry): reduced
- FOXP3 expression in tumors ([3]; immunohistochemistry): decreased
- time to complete regression of the tumors ([3]; mouse, in vivo): less than 10 days
- average survival (time to maximum tumor volume) ([4]; 100 mg/kg diet, control 31 days): 49 days
- infiltration of CD8 T cells ([4]; at endpoint): increased infiltration
- levels of CD206 and p-STAT3 in whole lysates of the tumors ([4]; at endpoint): No differences
- cells undergoing apoptosis (cleaved caspase 3) ([4]; immunohistochemistry at endpoint): higher number of cells undergoing apoptosis
- p-STAT1 in whole lysates of tumors ([4]; western blot at endpoint): tendency for lower levels
